From US20250154134A1, “COMPOUND AS FAK INHIBITOR AND USE THEREOF” (WIGEN BIOMEDICINE TECHNOLOGY (SHANGHAI) CO., LTD., priority 2022, published 2025)

Legend:
[1] = tested on: Human prostate cancer PC3 cells; assay: In vivo efficacy, PC3 xenograft in nude mice; parameters: species or system mouse; settings: PC-3 model, 25 mg/kg, QD (21 days), PO
Description: (§1) The groups were as follows: 1) a solvent control group, 8 mice; and 2) a control compound group and a test compound group, 8 mice each. The mice in the solvent control group were intragastrically administered 0.5% CMC-Na twice a day; the mice in the compound groups were intragastrically administered 0.5% MC-Tween-80 suspension once a day. On Tuesday and Thursday each week, tumor volumes and body weight of the mice were measured, and the nude mice were sacrificed on day 21 after the administration. […] The toxicity of the compounds was evaluated according to the body weight of the mice.

[2] = tested on: PC3 cells; assay: Inhibition of PC3 cell low adsorption (adherent cell count, 4 h); assay type: cell-based; settings: Homo sapiens, PC-3; 4 h treatment; read-out: IC50 against PC3 cell low adsorption
Description: PC3 cells were seeded at 8000 cells/well. 4 h after the cells were treated with a compound, the number of adherent cells was counted. The inhibition percentage and IC50 of the compound were calculated compared to the DMSO group.

[3] = tested on: Mouse colon cancer MC38 cells; assay: In vivo efficacy, MC38 model in BALB/c mice, single drug and PD-1 combination; settings: MC-38 model, single drug, 50 mg/kg, QD (21 days), PO
Description: Female BALB/c mice (aged 6 weeks, 18-22 g) were provided by Vital River Laboratory Animal Technology Co., Ltd. (China) and used one week after quarantine and acclimation. All animals were kept in a room at 23±2° C. with a relative humidity of 50±5%, artificial lighting was provided from 08:00 to 20:00 every day, and the air was exchanged 13-18 times per hour.
After being subcultured, the cells were collected when they reached the desired amount. The BALB/c mice were subcutaneously injected with 1×10^6 MC38 cells on the right side to form tumors. […] Administration was then started. Tumor volumes were measured with a caliper on day 3, day 7, day 10, day 14, day 17, and day 21 after the administration.
The toxicity of the compounds was evaluated according to the body weight and state of the mice.

[4] = tested on: Human pancreatic cancer Mia PaCa-2 cells; assay: In vivo efficacy, Mia PaCa-2 xenograft in nude mice; parameters: species or system mouse; settings: MiaPaCa-2 model, 25 mg/kg PO QD 21 days
Description: as §1, with “intragastrically administered 0.50% MC-Tween-80 suspension” for “intragastrically administered 0.5% MC-Tween-80 suspension”

[5] = tested on: PC3 cells; assay: PC3 cell proliferation, 3D activity assay (3D culture, 14 days); assay type: cell-based, human; settings: Homo sapiens, PC-3, 336 h, read-out: 3D inhibitory activity against PC3 cells IC50
[6] = tested on: PC3 cells; assay: PC3 cell proliferation, 2D activity assay (Cell Titer-Lumi, 72 h); assay type: cell-based, human; settings: Homo sapiens, PC-3, read-out: 2D inhibitory activity against PC3 cells IC50
[7] = target: FAK recombinant protein (Homo sapiens (Human), UniProt Q05397); assay: Inhibitory activity against FAK enzyme (HTRF, TK substrate); assay type: biochemical
Description: A compound serially diluted with DMSO was mixed with a FAK recombinant protein. After the mixture was left to stand at room temperature for 10 min, a biotin-labeled TK substrate (TK) and ATP were added. […] The inhibition percentage and IC50 of the compound were calculated compared to the DMSO control group.

[8] = In vivo pharmacokinetic experiment in CD-1 mice; settings: mouse, plasma, CD-1 female mice; for Vd: read-out: Vdss
Description: […] The mice were fasted for at least 12 h before the administration and given food 4 h after the administration, and they were given ad libitum access to water during the experiment.
On the day of the experiment, animals in the intravenous group were given the corresponding compound by single injection via the tail vein at an administration volume of 10 mL/kg; and animals in the oral group were given the corresponding compound by single intragastric injection at an administration volume of 10 mL/kg. The animals were weighed before administration, and the administration volume was calculated according to the body weight. The sample collection time points were 0.083 h, 0.167 h, 0.5 h, 1 h, 2 h, 4 h, 8 h, and 24 h. About 200 μL of whole blood was collected through the orbital venous plexus at each time point and used to prepare plasma for concentration determination by high-performance liquid chromatography-tandem mass spectrometry (LC-MS/MS). The plasma concentrations were processed using a non-compartmental model of Winnolin pharmacokinetic software, and the pharmacokinetic parameters were calculated using a linear-log trapezoidal method.

[9] = tested on: phosphorylation at the FAK 397 site; assay: Inhibition of Y397 phosphorylation in PC3 cells (ELISA); assay type: cell-based; settings: Homo sapiens, PC-3, 3 h treatment, read-out: IC50 against Y397 phosphorylation
Description: PC3 cells were seeded at 8000 cells/well. […] The inhibition percentage and IC50 of the compound were calculated compared to the DMSO group.

Chain of FAK recombinant protein (Q05397 whole entry): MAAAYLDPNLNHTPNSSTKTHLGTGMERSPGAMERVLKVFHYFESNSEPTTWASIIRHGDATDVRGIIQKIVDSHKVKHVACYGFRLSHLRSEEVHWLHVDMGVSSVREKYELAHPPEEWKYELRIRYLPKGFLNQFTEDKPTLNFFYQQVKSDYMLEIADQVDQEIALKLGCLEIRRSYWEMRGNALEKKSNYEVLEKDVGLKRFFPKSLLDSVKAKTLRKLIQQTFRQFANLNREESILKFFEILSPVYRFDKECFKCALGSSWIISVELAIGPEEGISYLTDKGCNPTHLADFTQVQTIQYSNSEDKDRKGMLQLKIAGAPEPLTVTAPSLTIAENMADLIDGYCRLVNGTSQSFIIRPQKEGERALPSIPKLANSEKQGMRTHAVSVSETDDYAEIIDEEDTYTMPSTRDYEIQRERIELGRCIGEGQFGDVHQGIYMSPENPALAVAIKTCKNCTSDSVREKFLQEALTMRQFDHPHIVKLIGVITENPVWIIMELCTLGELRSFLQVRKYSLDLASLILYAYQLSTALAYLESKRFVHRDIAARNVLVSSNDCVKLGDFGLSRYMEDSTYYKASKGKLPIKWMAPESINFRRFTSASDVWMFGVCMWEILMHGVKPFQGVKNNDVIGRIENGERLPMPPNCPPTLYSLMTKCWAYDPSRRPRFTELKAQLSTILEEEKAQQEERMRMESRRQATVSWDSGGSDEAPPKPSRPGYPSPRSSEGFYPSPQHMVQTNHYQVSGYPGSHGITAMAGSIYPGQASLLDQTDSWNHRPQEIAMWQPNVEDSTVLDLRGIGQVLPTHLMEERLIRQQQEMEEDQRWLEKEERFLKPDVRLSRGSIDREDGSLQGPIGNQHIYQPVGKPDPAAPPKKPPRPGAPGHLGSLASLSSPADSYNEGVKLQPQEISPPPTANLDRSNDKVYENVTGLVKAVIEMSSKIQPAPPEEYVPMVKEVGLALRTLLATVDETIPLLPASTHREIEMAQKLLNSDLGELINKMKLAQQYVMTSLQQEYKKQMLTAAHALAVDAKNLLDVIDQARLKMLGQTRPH

| Structure (SMILES) | TGI(%) [1] [%] | IC50 [2] [nM] | TGI(%) [3] [%] | TGI(%) [4] [%] | IC50 [5] [nM] | IC50 [6] [nM] | IC50 [7] [nM] | AUC(0-t) ([8]; iv, injection (1 mg/kg)) [ng·h/mL] | clearance ([8]; iv, injection (1 mg/kg)) [mL/min/kg] | half-life ([8]; iv, injection (1 mg/kg)) [h] | Vd ([8]; iv, injection (1 mg/kg)) [L/kg] | other results |
| --- | --- | --- | --- | --- | --- | --- | --- | --- | --- | --- | --- | --- |
| COc1cc(N2CC3(CCN(C)CC3)C2)ccc1Nc1ncc(C(F)(F)F)c(Oc2cccc3c2C(=O)N(C)C32CC2)n1 [Compound 79] | 88.33 | 1.09 | 69.21 | 89.35 | 0.32 | > 10000 | < 20 | 883 | 18.9 | 3.48 | 5.14 | AUC(0-t) ([8]; oral administration, 5 mg/kg): 1760 ng·h/mL; Cmax ([8]; oral administration, 5 mg/kg): 201 ng/mL; Tmax ([8]; oral administration, 5 mg/kg): 4 h; bioavailability ([8]; oral administration, 5 mg/kg): 40%; half-life ([8]; oral administration, 5 mg/kg): 3.06 h |
| COc1cc(N2CC3(CCN(C)CC3)C2)ccc1Nc1ncc(Cl)c(Oc2cccc3c2C(=O)N(C)C32CC2)n1 [Compound 136, 4′-((5-chloro-2-((2-methoxy-4-(7-methyl-2,7-diazaspiro[3.5]nonan-2-yl)phenyl)amino)pyrimidin-4-yl)oxy)-2′-methylspiro[cyclopropane-1,1′-isoindolin]-3′-one] | 76.67 | 1.16 | 32.53 | 89.46 | 0.6 | > 10000 | < 20 | 1110 | 15 | 3.31 | 4.15 | IC50 [9]: 0.22 nM; AUC(0-t) ([8]; oral administration (10 mg/kg)): 8910 ng·h/mL; Cmax ([8]; oral administration (10 mg/kg)): 907 ng/mL; Tmax ([8]; oral administration (10 mg/kg)): 2 h; bioavailability ([8]; oral administration (10 mg/kg)): 80.2%; half-life ([8]; oral administration (10 mg/kg)): 2.2 h |
